Like-named read-outs stand apart in the source and are kept apart here.
What was measured:
CB1 receptor = biological target: T1, CB1 receptor (Homo sapiens, UniProt P21554); experiment: cAMP accumulation in HEK293 cells transfected with AC5, D1AR, CB1R; type: cell-based
T1 construct: expressed in transfected cells; host or cells: HEK293 cells (ATCC), calcium phosphate transfection
Protocol: HEK293 cells were obtained from American Type Culture Collection (Manassas, Va.). Cells were cultured in 225 mL flasks containing 39 mL of MEM containing 10% fetal bovine serum, penicillin (50 μg/mL), streptomycin (50 μg/mL), and neomycin (100 μg/mL). The flasks were maintained in a humidified atmosphere of 95% air and 5% CO2 at about 37° C. Transfection was performed by the method of DNA precipitation with calcium phosphate 1 day after HEK 293 cells were transferred to small flasks (75 mL) at the density of approximately 60 to 80% confluence. Plasmid DNA containing AC5 or AC7 cDNA (11.5 μg), plasmid DNA carrying the human D1A dopamine receptor cDNA (3 μg) and CB1 receptor cDNA (3 μg), and pCMS-EGFP (1 μg) were used for each small flask, which also contained 13 mL of the culture medium. The amount of DNA per flask was adjusted to a total of 26 μg using vector DNA. Transfection efficiency was routinely monitored by observing the expression of enhanced green fluorescent protein (GFP) by an epifluorescence microscope equipped with a filter set (excitation, 480/40 nm; emission, 535/50 nm) and a dichroic mirror (T89002bs; Chroma Technology, Rockingham, Vt.). After transfection, cells were harvested and transferred into 24-well culture plates. The transfected cells were cultured for 1 to 2 days before the cAMP accumulation experiments were carried out.
After labeling and intracellular ATP pool with 3.0 μCi/mL of [2,8-^3H]adenine, cells were incubated in DMEM (0.5 mL/well) without phenol red, buffered to pH 7.1 with 20 mM of 4-(2-hydroxyethyl)-1-piperazineethanesulfonic acid (HEPES) for 30 minutes at 37° C.
To determine the effect of the DCUK-OEt or other compounds on the function of the CB1 receptor, the cells were treated with the phosphodiesterase inhibitor, IBMX (500 μM), for 10 minutes at 37° C., followed by the addition of D1A receptor agonist, dopamine (DA) (1 μM), in the presence of a known CB1 agonist or agonist, plus a CB1 antagonist for 5 minutes. The following agonist and antagonist were used: CB1 receptor agonist, ACEA (10 μM); CB1 receptor antagonist, AM251 (10 μM). In additional reactions, the addition of DA was accompanied by addition of DCUK-OEt (10 μM) or DCUK-OEt together with AM251 (10 μM). In a final set of reactions DCUK-OEt was added with ACEA (10 μM), to assess whether DCUK-OEt acted like a CB1 receptor antagonist. The reactions were terminated by adding 50 μL of 100% (w/v) tricholoroacetic acid. ATP and cAMP were separated through Dowex 50 and neutral alumina columns as is known in the art, and quantified by liquid scintillation counting. [α-^32P]ATP and 8-[^14C]cAMP were added as internal standards to monitor the recovery of ATP and cAMP through column chromatography. Conversion of [^3H] ATP into [^3H]cAMP was calculated as follows: [^3H]cAMP (%)=[^3H]cAMP (cpm)/([^3H]ATP (cpm)+[^3H]cAMP (cpm))·100. [^3H]cAMP (%) values obtained from cells which underwent only the 10-minute IBMX incubation period before the addition of trichloroacetic acid, were used as blanks and these values were subtracted from the values obtained from cells which underwent the 1-minute incubation period with DA in the presence or absence of other agonists/antagonists. Each condition was assayed in triplicate and the whole experimental procedure was repeated 4 times. The ratio of cAMP accumulation was calculated for all treatment groups versus DA treatment group (100%) and the values were averaged among the four batches of experiments.

[1] = biological target: voltage sensitive sodium channel (neurotoxin receptor Site 2); experiment: [3H]BTX binding assay; settings: rat cortical synaptosomes
[2] = biological target: rat brain type IIA Na+ channel (Nav1.2) (Rattus norvegicus, UniProt P04775); experiment: Whole-cell patch clamp recordings of Na+ currents in CNaIIA-1 cells; type: cell-based
Chain of rat brain type IIA Na+ channel (Nav1.2) (P04775 whole entry): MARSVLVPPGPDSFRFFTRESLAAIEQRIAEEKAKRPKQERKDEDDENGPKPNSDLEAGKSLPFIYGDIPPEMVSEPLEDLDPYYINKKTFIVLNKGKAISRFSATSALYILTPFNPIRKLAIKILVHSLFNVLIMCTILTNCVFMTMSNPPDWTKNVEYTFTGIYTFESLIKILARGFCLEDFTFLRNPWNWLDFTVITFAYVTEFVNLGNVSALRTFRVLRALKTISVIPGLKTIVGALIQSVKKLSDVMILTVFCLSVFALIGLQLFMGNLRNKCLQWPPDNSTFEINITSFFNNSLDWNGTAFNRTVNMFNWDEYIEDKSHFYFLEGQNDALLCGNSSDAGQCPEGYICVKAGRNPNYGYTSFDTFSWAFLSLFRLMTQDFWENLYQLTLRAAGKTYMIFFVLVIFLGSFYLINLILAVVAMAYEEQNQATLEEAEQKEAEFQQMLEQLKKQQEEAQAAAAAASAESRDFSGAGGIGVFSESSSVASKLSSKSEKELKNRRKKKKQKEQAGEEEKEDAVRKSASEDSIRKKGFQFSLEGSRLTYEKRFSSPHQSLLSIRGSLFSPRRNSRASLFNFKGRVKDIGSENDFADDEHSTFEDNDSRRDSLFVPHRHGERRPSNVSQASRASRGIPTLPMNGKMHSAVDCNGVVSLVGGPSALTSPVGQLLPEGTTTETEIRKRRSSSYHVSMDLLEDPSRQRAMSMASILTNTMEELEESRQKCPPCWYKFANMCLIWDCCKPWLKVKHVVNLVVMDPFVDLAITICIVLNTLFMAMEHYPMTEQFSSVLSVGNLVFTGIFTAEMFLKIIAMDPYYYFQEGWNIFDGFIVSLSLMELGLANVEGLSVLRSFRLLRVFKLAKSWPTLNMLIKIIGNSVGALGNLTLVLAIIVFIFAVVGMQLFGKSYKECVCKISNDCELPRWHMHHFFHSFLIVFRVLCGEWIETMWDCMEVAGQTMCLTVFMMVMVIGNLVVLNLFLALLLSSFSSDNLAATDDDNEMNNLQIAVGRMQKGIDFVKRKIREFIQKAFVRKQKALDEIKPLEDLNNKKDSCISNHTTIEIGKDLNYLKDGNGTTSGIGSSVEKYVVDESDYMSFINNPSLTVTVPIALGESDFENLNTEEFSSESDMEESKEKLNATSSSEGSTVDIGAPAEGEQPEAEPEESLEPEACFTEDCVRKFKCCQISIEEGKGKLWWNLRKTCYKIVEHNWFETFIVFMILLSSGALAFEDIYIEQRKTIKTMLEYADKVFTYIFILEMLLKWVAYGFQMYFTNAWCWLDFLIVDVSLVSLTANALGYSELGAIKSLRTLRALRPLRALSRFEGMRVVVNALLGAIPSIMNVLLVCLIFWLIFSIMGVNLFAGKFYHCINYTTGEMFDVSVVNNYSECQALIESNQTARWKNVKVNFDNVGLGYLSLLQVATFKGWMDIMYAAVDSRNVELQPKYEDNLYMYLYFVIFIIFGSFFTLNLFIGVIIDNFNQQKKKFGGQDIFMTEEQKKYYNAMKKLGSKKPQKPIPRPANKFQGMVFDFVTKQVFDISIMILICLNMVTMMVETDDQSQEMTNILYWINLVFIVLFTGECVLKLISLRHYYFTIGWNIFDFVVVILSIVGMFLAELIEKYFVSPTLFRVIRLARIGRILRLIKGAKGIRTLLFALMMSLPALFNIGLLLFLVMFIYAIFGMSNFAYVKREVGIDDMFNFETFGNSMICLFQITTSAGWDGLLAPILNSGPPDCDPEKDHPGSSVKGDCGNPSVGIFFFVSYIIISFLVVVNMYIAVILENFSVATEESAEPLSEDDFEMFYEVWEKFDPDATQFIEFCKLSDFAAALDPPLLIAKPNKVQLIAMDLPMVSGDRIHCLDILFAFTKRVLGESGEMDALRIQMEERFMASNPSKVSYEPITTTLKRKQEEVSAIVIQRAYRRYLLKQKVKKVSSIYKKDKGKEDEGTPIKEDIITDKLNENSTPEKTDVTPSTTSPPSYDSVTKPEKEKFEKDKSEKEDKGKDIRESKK

[3] = biological target: T2, glycine recognition site of the NMDA receptor complex (Rattus norvegicus, UniProt P35439); experiment: [3H]5,7-DCKA binding assay; settings: rat cortical membranes; none = no displacement at 100 μM
T2 construct: The telencephalon (cerebral cortex, hippocampus, and striatum) was dissected and homogenized; from tissue; host or cells: rat telencephalon membranes (cerebral cortex, hippocampus, striatum), Triton X-100 treated
Protocol: General receptor-binding procedures. Male Sprague-Dawley rats were decapitated and their brains removed rapidly. The telencephalon (cerebral cortex, hippocampus, and striatum) was dissected and homogenized in 20 volumes of ice-cold 0.32 M sucrose, 20 mM HEPES-KOH (pH 7.2 at room temperature) containing protease inhibitors ([…], 5 mg/mL antipain, 20 mg/mL soybean trypsin inhibitor, 500 μM benzamidine, […] aprotinin, and 500 μM phenylmethylsulfonyl fluoride) with a motor driven glass-TEFLON® fluorocarbon homogenizer (8-10 strokes at setting 1). The homogenate was centrifuged at 800 g for 10 minutes. The pellet was discarded and the supernatant was centrifuged at 20,000 g for 20 minutes. The resulting pellet was resuspended in 20 volumes of distilled water containing 500 μM benzamidine and centrifuged for 20 minutes at 7500 g. Then the supernatant and buffy coat were centrifuged three times (51,500 g for 20 minutes) in the presence of distilled water containing 500 μM benzamidine. All centrifugation steps were carried out at 4° C. The final pellet was frozen rapidly at −80° C.
On the day of the assay, the pelleted membranes were resuspended in 20 volumes of 50 mM HEPES-KOH buffer, pH 7.4, and incubated for 20 minutes at 37° C. followed by centrifugation (51,500 g for 20 minutes). Membranes were then resuspended in 50 mM HEPES-KOH buffer (pH 7.8) containing 0.08% Triton X-100. After stirring for 30 minutes at 4° C., the membranes were pelleted by centrifugation (100,000 g for 20 minutes). The membranes were then washed twice by resuspension in the buffer appropriate for the binding assay and centrifugation (100,000 g for 20 minutes). The final pellet was suspended in assay buffer. The amount of protein in the final membrane preparation was determined with the bicinchoninic acid method (BCA; Pierce Chemical Co., Rockford, Ill.). The final protein concentration used for our studies was 300 to 600 μg/mL. Receptor-binding protocols described below were adapted from published procedures. For all assays, the samples, all in duplicate or triplicate, were placed into scintillation vials containing 5.5 mL of scintillation liquid (Ultima Gold; Packard Instrument Co., Inc., Meriden, Conn.) and the retained radioactivity was determined by conventional scintillation spectroscopy with a Beckman TA-6000 scintillation counter. Radio-ligands were purchased from DuPont-NEN (Boston, Mass.).
[^3H]5,7-Dichlorokynurenic acid (5,7-DCKA)-binding assay. The glycine recognition site of the NMDA receptor complex was labeled with the competitive antagonist [^3H]5,7-dichlorokynurenic acid (5,7-DCKA). […]
Data Analysis. The data were analyzed with SigmaPlot 5.0 and SigmaStat 2.0 (Jandel Scientific, Corte Madera, Calif.) software. […]

DBA/2 mice = experiment: Audiogenic seizures; type: in vivo, mouse; settings: i.p., 100 and 500 mg/kg
Protocol: Audiogenic Seizures. Male DBA/2J mice (20-22 days old; 8-12 g) were used to evaluate the effects of DCUK-OMe in an animal model of partial seizures. Mice were dosed (i.p.) with vehicle (5% TWEEN 80/0.5% methylcellulose), 100 mg/kg DCUK-OMe, or 500 mg/kg DCUK-OMe, 30 minutes before noise stimulation. Mice were placed into a cylindrical Plexiglas testing chamber (15×50 cm, diameter 3 height) enclosed in a sound-attenuated box. After a 15- to 20-second habituation period, a high-intensity auditory stimulus (ringing doorbell; 12-16 kHz, 109 db) was activated for 30 seconds or until tonic hindlimb extension occurred. The seizure response in these mice is characterized by a progression of a wild running behavior, followed by loss of righting and clonus of the forelimbs, followed by tonic hindlimb extension, and finally respiratory arrest.

[4] = Solubility limit in aqueous assay buffers; type: physicochemical; settings: aqueous assay buffers (incubation or bath solutions), aqueous buffer, kinetic from dmso stock, DMSO 0.2 to 1%, read-out: concentrations that could not be tested due to limited solubility in aqueous buffers
Protocol: Drugs. For all in vitro assays, stock solutions of DCUKA or DCUK-OMe were prepared fresh daily in dimethylsulfoxide (DMSO) then diluted into the incubation or bath solutions with sonication to the desired concentrations for experiments. Due to their limited solubility in aqueous buffers, DCUKA concentrations >300 μM and DCUK-OMe concentrations >100 μM could not be tested. In those assays where high ionic strength buffers were used, i.e., [^3H]batrachiotoxin (BTX) binding in depolarized synaptosomes, concentrations >50 μM could not be tested. The final concentration of DMSO in the assays ranged from 0.2 to 1%. In all assays, drug effects were compared with effects measured in the presence of the identical concentration of DMSO without drug.

[5] = none = no displacement at 100 μM, read-out: IC50 [3H]BTX binding

T1 sequence (P21554 whole entry): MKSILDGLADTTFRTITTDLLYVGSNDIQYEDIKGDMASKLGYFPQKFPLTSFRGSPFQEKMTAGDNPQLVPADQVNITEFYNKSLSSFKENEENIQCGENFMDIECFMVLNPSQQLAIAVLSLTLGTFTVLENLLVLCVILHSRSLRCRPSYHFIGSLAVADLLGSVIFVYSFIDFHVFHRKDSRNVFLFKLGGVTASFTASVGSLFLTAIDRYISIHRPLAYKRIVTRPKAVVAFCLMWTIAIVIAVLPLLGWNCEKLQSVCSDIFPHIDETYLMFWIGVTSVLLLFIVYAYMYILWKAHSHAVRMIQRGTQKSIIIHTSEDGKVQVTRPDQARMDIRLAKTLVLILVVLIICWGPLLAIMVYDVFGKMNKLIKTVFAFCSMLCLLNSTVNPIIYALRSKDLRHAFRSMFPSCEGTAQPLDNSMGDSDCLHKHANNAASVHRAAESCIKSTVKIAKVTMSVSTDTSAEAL

CCCCC/C=C\C/C=C\C/C=C\C/C=C\CCCC(=O)NCCCl [ACEA, reference compound]
effect on DA stimulated cAMP production with AM251 added (CB1 receptor; AM251 10 μM): the effect of ACEA was reversed | effect on DA stimulated cAMP production (CB1 receptor; dopamine 1 μM, compound 10 μM): reduced cAMP production

NC(=O)N1c2ccccc2C=Cc2ccccc21 [CBZ, carbamazepine, reference compound]
IC50 ([1]; depolarizing conditions (135 mM KCl), read-out: IC50 [3H]BTX binding under depolarizing conditions (value in parentheses)): 56 µM | IC50 [1, 5]: 71 µM | Kd [2]: 400 µM | Ki [2]: 14.6 µM | IC50 [3H]5,7-DCKA binding [3]: none

O=C(O)c1cc(=O)c2c(Cl)cc(Cl)cc2[nH]1 [5,7-DCKA, 5,7-dichlorokynurenic acid, reference compound]
IC50 [3H]BTX binding ([1]; none = no displacement at 100 μM): none | IC50 [3]: 0.11 µM

COC(=O)c1cc(NC(=O)N(c2ccccc2)c2ccccc2)c2c(Cl)cc(Cl)cc2n1 [DCUK-OMe, N,N-diphenyl-4-ureido-5,7-dichloro-2-carboxy quinoline methyl ester]
IC50 [1, 5]: 25 µM | protection against audiogenic seizures (DBA/2 mice): protection against audiogenic seizures | solubility [4]: > 100 µM | IC50 [3H]5,7-DCKA binding [3]: none

Source: patent US20110184018A1, “METHOD FOR TREATING PERIPHERAL NEUROPATHIC PAIN” (LOHOCLA RESEARCH CORPORATION, priority 2005, published 2011)
